Measured values from patent US11273163B2, “Antiviral treatment” (priority 2020, dated 2022).

Test system: SARS-CoV-2 B.1.1.7
Test: microbe, parasite or virus in culture
Format: cell-based

## CN1CCCC(n2nc(Cc3ccc(Cl)cc3)c3ccccc3c2=O)CC1 (stereo not shown) [Azelastine, 4-[(4-chlorophenyl)methyl]-2-(1-methylazepan-4-yl)phthalazin-1-one]
  inhibition of infection: over 90%
